In patent US7138238B2, “Ligand sensor devices and uses thereof” (priority 2001, dated 2006):
Like-named read-outs stand apart in the source and are kept apart here. Primed or numbered codes have the meaning given here. Ends that are not written are not given here. Biotin′ = not defined here

What was measured:
murine liver homogenate = assay: Ligand sensor device selectivity assay, murine liver homogenate; format: binding, mouse
Experimental: (§1) Identification of a peptide of interest. Mice were euthanized with carbon dioxide gas and cats were euthanized with an overdose of pentobarbital administered intravenously (the use of animals was approved by the Auburn University Animal Care and Use Committee). After death, animals were perfused with ice-cold Phosphate Buffered Saline (PBS). Samples of mouse and cat skeletal muscle, mouse kidney, liver and brain were harvested. Tissue aliquots (200 mg) were homogenized in 4 ml PBS using a manual homogenizer. Immediately after homogenization samples were microcentrifuged for 10 min at 3,000 rpm, and the supernatants containing tissue vesicles were separated from the pellets. […] Vesicle concentration and integrity were examined by dark-field microscopy (Vodyanoy et al. (1994) Langmuir 10: 1354–1357). Dilutions of tissue samples were prepared in PBS as follows: 1:5, 1:25, 1:125, and 1:625. To perform the blocking experiment, free ASSLNIA peptide (1 mg/ml) synthesized by Research Genetics, Inc. (Huntsville, Ala., USA) was added to the murine skeletal muscle tissue homogenate (50 mg/ml) and incubated at room temperature for 1 hour with agitation. Protein concentration in tissue samples was determined using Bio-Rad® Protein Assay Kit (Bio-Rad Laboratories, Hercules, Calif., USA).
(§2) Coupling the peptide of interest to the sensor. The sensor, prepared as described above by the addition of a Langmuir-Blodgett film of biotinylated lipid, was then coupled to the peptide of interest by molecular assembly with streptavidin. Streptavidin was diluted to a final concentration of 0.01 mg/ml in the subphase solution and exposed to the LB film for 2 hours; the film was then rinsed with distilled water and dried for 2 min in ambient air. […] If necessary, this preparation step could be followed by a blocking step with a biotin solution. In this manner, the peptide of interest was coupled with the phospholipid via molecular assembly with streptavidin (see FIG. 1), thereby coupling the peptide of interest to the sensor to create the ligand sensor device (LSD). Each LSD was placed in an individual Petri dish and stored no longer than 24 hours at 4° C. until affinity assays were performed.
(§3) Quantifying the signal output from the ligand sensor device (LSD). Measurements were carried out using a PM-740 Maxtek plating monitor with a frequency resolution of 0.5 Hz at 5 MHz. […]
(§4) To evaluate the affinity of a ligand, the LSD was positioned in the probe arm of the instrument just before delivery of samples. Immediately after recording was started, 1000 μl phosphate buffered saline (PBS) was delivered with a pipette to the dry sensor surface and voltage was recorded for 4–8 minutes. […] Voltage output of the LSD was recorded and records were analyzed offline. […]

[1] = test system: feline skeletal muscle homogenate; assay: Ligand sensor device binding assay, feline muscle homogenate; set-up: species or system cat
Experimental: as §1
A 7-mer phage display peptide library (New England Biolabs, Inc., Beverly, Mass., USA) was screened as described in Samoylova and Smith (1999) Muscle & Nerve 22: 460–466.
Preparation of the sensor. AT-cut planar quartz crystal sensors with a 5 MHz nominal oscillating frequency were purchased from Maxtek, Inc. Circular gold electrodes were deposited on both sides of the crystal sensor for the electrical connection to the oscillatory circuit. The sensor was prepared to be coupled to the peptide by the addition of a Langmuir-Blodgett film of biotinylated lipid. Lipid monolayer depositions were carried out using a Langmuir-Blodgett (LB) film balance KSV 2200 LB (KSV-Chemicals, Finland). This fully computerized system includes a Wilhelmy-type surface balance (range 0–100 mN/m; sensitivity 0.05 mN/m), a Teflon trough (45×15 cm^2), a variable speed motor-driven Teflon barrier (0–200 mm/min), and a laminar flow hood. The trough was mounted on a 200 kg marble table. Vibration control was provided by interposing rubber shock absorbers and by mounting the laminar flow hood on a separate bench. Surface pressure was monitored by use of a sandblasted platinum plate of 4-cm perimeter. The temperature of the aqueous subphase (20° C. ±0.1° C.) was controlled by water circulation through a quartz tube coil on the bottom of the trough. The temperature of the aqueous subphase was measured by a thermistor located just below the air/liquid interface. […]

murine brain homogenate = assay: Ligand sensor device selectivity assay, murine brain homogenate; format: binding, mouse
Experimental: as §1, §2, §3, §4

[2] = target: murine skeletal muscle homogenates; assay: Ligand sensor device (acoustic wave sensor) binding assay, murine muscle homogenate; set-up: species or system mouse; conditions: for Kd: read-out: apparent dissociation constant Kd
Experimental: as §1, with “USA). […]” for “USA).”
Preparation of the sensor. AT-cut planar quartz crystal sensors with a 5 MHz nominal oscillating frequency were purchased from Maxtek, Inc. Circular gold electrodes were deposited on both sides of the crystal sensor for the electrical connection to the oscillatory circuit. The sensor was prepared to be coupled to the peptide by the addition of a Langmuir-Blodgett film of biotinylated lipid. Lipid monolayer depositions were carried out using a Langmuir-Blodgett (LB) film balance KSV 2200 LB (KSV-Chemicals, Finland). This fully computerized system includes a Wilhelmy-type surface balance (range 0–100 mN/m; sensitivity 0.05 mN/m), a Teflon trough (45×15 cm^2), a variable speed motor-driven Teflon barrier (0–200 mm/min), and a laminar flow hood. The trough was mounted on a 200 kg marble table. Vibration control was provided by interposing rubber shock absorbers and by mounting the laminar flow hood on a separate bench. Surface pressure was monitored by use of a sandblasted platinum plate of 4-cm perimeter. The temperature of the aqueous subphase (20° C. ±0.1° C.) was controlled by water circulation through a quartz tube coil on the bottom of the trough. The temperature of the aqueous subphase was measured by a thermistor located just below the air/liquid interface.
Monolayers were transferred onto the gold surface of an acoustic wave sensor using the Langmuir-Blodgett technique. Lipid solutions were spread on the aqueous subphase as hexane solutions (1 mg/ml) containing 2% ethanol (Ito et al. (1989) Thin Solid Films 180: 1–13). The lipid solutions contained phospholipid (N (biotinoyl)-1,2-dihexadecanoyl-SN-glycero-3-phosphoethanolamine). The aqueous subphase was a solution containing 55 mM KCl, 4 mM NaCl, 0.1 mM CaCl2, 1 mM MgCl2 and 2 mM 3-(N-morpholino)-propanesulfonic acid (MOPS) made with deionized double distilled water (pH 7.4). After spreading, the monolayer was allowed to equilibrate and stabilize for 10 min at 19° C.

murine kidney homogenate = assay: Ligand sensor device selectivity assay, murine kidney homogenate; format: binding, mouse
Experimental: as §1, §2
Quantifying the signal output from the ligand sensor device (LSD). Measurements were carried out using a PM-740 Maxtek plating monitor with a frequency resolution of 0.5 Hz at 5 MHz. The voltage output from the Maxtek device is directly related to the resonance frequency of the quartz crystal sensor. Changes in the resonance frequency of the quartz crystal sensor were used to monitor the binding of homogenate vesicles to the sensor surface.
To evaluate the affinity of a ligand, the LSD was positioned in the probe arm of the instrument just before delivery of samples. Immediately after recording was started, 1000 μl phosphate buffered saline (PBS) was delivered with a pipette to the dry sensor surface and voltage was recorded for 4–8 minutes. The PBS was then removed carefully with a plastic pipette tip and a new recording was initiated. Tissue homogenates of different dilutions were added sequentially to the sensor and the same measuring procedure was followed after each addition. Each experiment was replicated 2–4 times, and the temperature of all samples was 25° C. Voltage output of the LSD was recorded and records were analyzed offline.
Binding selectivity of the Ligand Sensor Device.

[3] = Table 2, feline muscle homogenate
[4] = Table 1, blocked muscle: homogenate (50 mg/ml) incubated with free peptide (1 mg/ml) 1 hour at room temperature
[5] = Table 2, murine muscle homogenate

**Q.** What does the source list for “7-mer peptide selected in vivo for murine myofibers by phage display; coupled to the sensor as ASSLNIAGGGSK-Biotin (SEQ ID NO:3) (ASSLNIAGGGSK-{Biotin′}; also: coupled to the sensor)”?
**A.** sensitivity (S), slope of dose response (murine liver homogenate; Table 3, murine liver): 67.3 ± 6.0 V/decade; sensor response (murine liver homogenate; murine liver preparation): insignificant responses; Selectivity coefficient, K (murine liver homogenate; murine liver, K = Stissue/Smuscle): (5.0 ± 1.5) × 10^−1 relative units; Activity ratio, R (murine liver homogenate; murine liver, R = ΔCmuscle/ΔCtissue at protein concentration 0.01 mg/ml): (1.1 ± 0.4) × 10^−3 relative units; Mmax [1, 3]: 32.8 ± 2.0 ng/cm^2; apparent dissociation constant Kd [1, 3]: 370 ± 50 µg/mL; Hill coefficient ([1]; Table 2, feline muscle homogenate, equation 2): 0.93 ± 0.04; sensor response ([1]; feline muscle homogenates, compared to murine muscle): appreciable, but lower responses; sensitivity (S), slope of dose response (murine brain homogenate; Table 3, murine brain): 62.5 ± 16 V/decade; sensor response (murine brain homogenate; murine brain preparation): insignificant responses; Selectivity coefficient, K (murine brain homogenate; murine brain, K = Stissue/Smuscle): (4.6 ± 1.4) × 10^−1 relative units; Activity ratio, R (murine brain homogenate; murine brain, R = ΔCmuscle/ΔCtissue at protein concentration 0.01 mg/ml): (3.4 ± 1.1) × 10^−3 relative units; apparent dissociation constant Kd [2, 4]: 320 ± 50 µg/mL; apparent maximal surface concentration of protein Mmax [2, 4]: 34.4 ± 3.0 ng/cm^2; apparent dissociation constant Kd ([2]; Table 1, murine muscle homogenate, calculated from Hill plots): 280 µg/mL; apparent maximal surface concentration of protein Mmax ([2]; Table 1, murine muscle homogenate, estimated from increase of sensor voltage): 54.0 ± 4.0 ng/cm^2; Mmax [2, 5]: 50.5 ± 3.0 ng/cm^2; apparent dissociation constant Kd [2, 5]: 320 ± 50 µg/mL; Hill coefficient ([2]; Table 2, murine muscle homogenate, equation 2): 0.92 ± 0.04; sensitivity (S), slope of dose response ([2]; Table 3, murine muscle): 134 ± 20.0 V/decade; apparent dissociation constant, level ([2]; assuming only a fraction of molecules on vesicle surface bind the peptide): subnanomolar level; Kd ([2]; corrected for target molecules being ~0.5% of vesicle mass): 5 to 10 nM; Selectivity coefficient, K ([2]; murine muscle (reference), K = Stissue/Smuscle): 1.0 relative units; Activity ratio, R ([2]; murine muscle (reference), protein concentration 0.01 mg/ml): 1.0 relative units; time to approach steady-state signal output τ2 ([2]; murine muscle homogenate, each concentration, FIG. 2): 70 ± 20 s; initial delay in signal output response τ1 ([2]; murine muscle homogenate, independent of concentration, FIG. 2): 8 ± 1 s; sensor response ([2]; murine muscle homogenates): strong response; protein concentration at which signal was saturated ([2]; murine muscle homogenates, FIG. 3): about 5.0 mg/ml; sensor signal after blocking ([2]; preincubation of muscle homogenates with free peptide): significantly reduced signal; Kd ([2]; speculating target molecule of about 75–150 kD): 1000 to 2000 nM; kidney homogenate needed to induce same response as 0.01 mg/ml muscle homogenate (murine kidney homogenate): more than 100 mg/ml; sensitivity (S), slope of dose response (murine kidney homogenate; Table 3, murine kidney): 41.8 ± 7.0 V/decade; selective preference for ligand(s) in muscle over kidney homogenates, factor (murine kidney homogenate; at 0.01 mg/ml muscle homogenate): more than 10,000; sensor response (murine kidney homogenate; murine kidney preparation): insignificant responses; Selectivity coefficient, K (murine kidney homogenate; murine kidney, K = Stissue/Smuscle): (3.1 ± 1.0) × 10^−1 relative units
